Reference: patent US4755523A, “Abietamide derivatives” (Nippon Shinyaku Co., Ltd., priority 1986, dated 1988)

Key:
[1] = test system: Triton-induced hyperlipemic mice (serum total cholesterol); assay: Effect in Triton-induced hyperlipemic mice (Triton test), inhibiting rate against serum total cholesterol increase; type: in vivo, Male ICR-strain mice; conditions: Triton WR-1339 500 mg/kg i.v., test compound 300 mg/kg oral, serum TC after 24 hours, ** significant at 1% level
Description: Test method: Male ICR-strain mice of 9 weeks age (6 to 9 mice per group) were used. A solution of Triton WR-1339 in physiological saline solution was injected from tail vein at the dose of 500 mg/kg whereupon hyperlipemia was induced. Physiological saline solution was injected to normal group intravenously. Immediately thereafter, 300 mg/kg of the test compound suspended in 0.5% methylcellulose (MC) was given orally. The group given with 0.5% MC solution was called a control group. After fasting for 24 hours, head was cut, blood was taken, and the TC value of the resulting serum was measured. The inhibiting rate (%) against serum TC increase of the test compound was calculated by the following expression: [formula]

[2] = test system: cholesterol loaded rats (serum total cholesterol); assay: Effect in cholesterol loaded rats (HCD test), serum total cholesterol increase-inhibiting rate; type: in vivo, Male Wister strain rats; conditions: high-cholesterol food containing 0.03% of test compound, 3 days, serum TC, ** significant at 1% level
Description: Test method: Male Wister strain rats of 4 weeks age (six rats per group) were used. They were fed with a high-cholesterol food containing 0.03% of the compound to be tested. After 3 days' feeding, they were fasted overnight, blood was collected therefrom, and the total cholesterol level (TC) in serum was measured. A group fed with a high cholesterol food containing no test compound and groups fed with normal synthetic food were called control group and normal groups, respectively. The serum TC increase-inhibiting rate (%) of the test compound was calculated by the following expression: [formula]

[3] = test system: biosynthesis of cholesterol; conditions: Japanese Laid Open Application Sho-51/026864; cited from earlier work
[4] = test system: absorption of extrinsic cholesterol from the intestinal tract; conditions: Japanese Laid Open Application Sho-51/026864; cited from earlier work

Structure (SMILES)	Inhibitory Rate for Cholesterol Increase (Triton Test) [1]	Inhibitory Rate for Cholesterol Increase (HCD Test) [2]	inhibition of the biosynthesis of cholesterol [3]	inhibition of absorption of extrinsic cholesterol from the intestinal tract [4]
CC(C)C1CCC2=C(CCC3C(C)(C(=O)Nc4ccnn4-c4ccccc4)CCCC23C)C1 (stereo not shown) [Example 1, N-(1-phenylpyrazol-5-yl)-Δ^8-dihydroabietamide]	32%	115%		
CC(C)C1CCC2=C(CCC3C(C)(C(=O)Nc4nccs4)CCCC23C)C1 (stereo not shown) [Example 3, N-(Thiazol-2-yl)-Δ^8-dihydroabietamide]	75%	47%		
Cc1csc(NC(=O)C2(C)CCCC3(C)C4=C(CCC23)CC(C(C)C)CC4)n1 (stereo not shown) [Example 4, N-(4-Methylthiazol-2-yl)-Δ^8-dihydroabietamide]	68%	102%		
Cc1cccc(C)c1NC(=O)C1(C)CCCC2(C)C3=C(CCC12)CC(C(C)C)CC3 (stereo not shown) [N--(2,6-Dimethylphenyl)-Δ^8-dihydroabietamide, reference compound]	-8%	100%	do not inhibit the biosynthesis of cholesterol	inhibit absorption of extrinsic cholesterol from the intestinal tract
